Laboratory results taken from PubChem BioAssay (NCI).
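GI50 = concentration required for 50% inhibition of growth. TGI: total growth inhibition.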

Legend:
Assay in all cases: NCI-60 cell line screen, 384-well format
SF-268 CNS = system: SF-268 CNS
ACHN renal = system: ACHN renal
TK-10 renal = system: TK-10 renal
SK-MEL-5 melanoma = system: SK-MEL-5 melanoma
SR leukemia = system: SR leukemia
COLO 205 colon = system: COLO 205 colon
NCI-H322M lung = system: NCI-H322M lung
MDA-MB-231 breast = system: MDA-MB-231 breast
SW-620 colon = system: SW-620 colon
KM12 colon = system: KM12 colon
NCI-H226 lung = system: NCI-H226 lung
MDA-MB-435 melanoma = system: MDA-MB-435 melanoma
CCRF-CEM leukemia = system: CCRF-CEM leukemia
MDA-MB-468 breast = system: MDA-MB-468 breast
SN12C renal = system: SN12C renal
NCI-H522 lung = system: NCI-H522 lung
OVCAR-8 ovarian = system: OVCAR-8 ovarian
UACC-62 melanoma = system: UACC-62 melanoma
SK-MEL-2 melanoma = system: SK-MEL-2 melanoma
SF-295 CNS = system: SF-295 CNS
HT29 colon = system: HT29 colon
CAKI-1 renal = system: CAKI-1 renal
OVCAR-4 ovarian = system: OVCAR-4 ovarian
SK-OV-3 ovarian = system: SK-OV-3 ovarian
U251 glioblastoma = system: U251 glioblastoma
M14 melanoma = system: M14 melanoma
MALME-3M melanoma = system: MALME-3M melanoma
RXF 393 renal = system: RXF 393 renal
PC-3 prostate = system: PC-3 prostate
SNB-19 CNS = system: SNB-19 CNS
HCC-2998 colon = system: HCC-2998 colon
786-0 renal = system: 786-0 renal
UACC-257 melanoma = system: UACC-257 melanoma
A549 NSCLC = system: A549 NSCLC
NCI/ADR-RES ovarian = system: NCI/ADR-RES ovarian
SK-MEL-28 melanoma = system: SK-MEL-28 melanoma
RPMI-8226 leukemia = system: RPMI-8226 leukemia
IGROV1 ovarian = system: IGROV1 ovarian
K-562 leukemia = system: K-562 leukemia
HCT-15 colon = system: HCT-15 colon
LOX IMVI melanoma = system: LOX IMVI melanoma
T-47D breast = system: T-47D breast
HOP-62 NSCLC = system: HOP-62 NSCLC
BT-549 breast = system: BT-549 breast
HL-60(TB) leukemia = system: HL-60(TB) leukemia
OVCAR-5 ovarian = system: OVCAR-5 ovarian
HOP-92 NSCLC = system: HOP-92 NSCLC
NCI-H460 NSCLC = system: NCI-H460 NSCLC
UO-31 renal = system: UO-31 renal
OVCAR-3 ovarian = system: OVCAR-3 ovarian
SF-539 CNS = system: SF-539 CNS
NCI-H23 lung = system: NCI-H23 lung
A498 renal = system: A498 renal
MOLT-4 leukemia = system: MOLT-4 leukemia

SMILES: CN(C)C/C=C/C(=O)Nc1ccc(C(=O)N[C@@]2(C)CCC[C@@H](Nc3ncc(Cl)c(-c4c[nH]c5ccccc45)n3)C2)nc1
- GI50 (SF-268 CNS): < 10 nM
- TGI (SF-268 CNS): 16.2 nM
- GI50 (ACHN renal): < 10 nM
- TGI (ACHN renal): 88.6 nM
- GI50 (TK-10 renal): 16.7 nM
- TGI (TK-10 renal): 101 nM
- GI50 (SK-MEL-5 melanoma): < 10 nM
- TGI (SK-MEL-5 melanoma): 13.3 nM
- GI50 (SR leukemia): < 10 nM
- TGI (SR leukemia): < 10 nM
- GI50 (COLO 205 colon): < 10 nM
- TGI (COLO 205 colon): < 10 nM
- GI50 (NCI-H322M lung): < 10 nM
- TGI (NCI-H322M lung): 41.3 nM
- GI50 (MDA-MB-231 breast): < 10 nM
- TGI (MDA-MB-231 breast): 115 nM
- GI50 (SW-620 colon): < 10 nM
- TGI (SW-620 colon): 22.9 nM
- GI50 (KM12 colon): < 10 nM
- TGI (KM12 colon): 10.8 nM
- GI50 (NCI-H226 lung): < 10 nM
- TGI (NCI-H226 lung): 34.1 nM
- GI50 (MDA-MB-435 melanoma): < 10 nM
- TGI (MDA-MB-435 melanoma): 15.7 nM
- GI50 (CCRF-CEM leukemia): < 10 nM
- TGI (CCRF-CEM leukemia): < 10 nM
- GI50 (MDA-MB-468 breast): < 10 nM
- TGI (MDA-MB-468 breast): < 10 nM
- GI50 (SN12C renal): < 10 nM
- TGI (SN12C renal): 17.2 nM
- GI50 (NCI-H522 lung): < 10 nM
- TGI (NCI-H522 lung): < 10 nM
- GI50 (OVCAR-8 ovarian): < 10 nM
- TGI (OVCAR-8 ovarian): 27.8 nM
- GI50 (UACC-62 melanoma): < 10 nM
- TGI (UACC-62 melanoma): < 10 nM
- GI50 (SK-MEL-2 melanoma): < 10 nM
- TGI (SK-MEL-2 melanoma): 10.9 nM
- GI50 (SF-295 CNS): < 10 nM
- TGI (SF-295 CNS): 67.5 nM
- GI50 (HT29 colon): < 10 nM
- TGI (HT29 colon): 72.2 nM
- GI50 (CAKI-1 renal): < 10 nM
- TGI (CAKI-1 renal): 103 nM
- GI50 (OVCAR-4 ovarian): < 10 nM
- TGI (OVCAR-4 ovarian): 35.9 nM
- GI50 (SK-OV-3 ovarian): < 10 nM
- TGI (SK-OV-3 ovarian): 85.4 nM
- GI50 (U251 glioblastoma): < 10 nM
- TGI (U251 glioblastoma): 30.2 nM
- GI50 (M14 melanoma): < 10 nM
- TGI (M14 melanoma): 13.7 nM
- GI50 (MALME-3M melanoma): 12.5 nM
- TGI (MALME-3M melanoma): 26.3 nM
- GI50 (RXF 393 renal): < 10 nM
- TGI (RXF 393 renal): < 10 nM
- GI50 (PC-3 prostate): < 10 nM
- TGI (PC-3 prostate): 44.4 nM
- GI50 (SNB-19 CNS): < 10 nM
- TGI (SNB-19 CNS): 1340 nM
- GI50 (HCC-2998 colon): < 10 nM
- TGI (HCC-2998 colon): 15.8 nM
- GI50 ([…]-0 renal): < 10 nM
- TGI (786-0 renal): 26.2 nM
- GI50 (UACC-257 melanoma): < 10 nM
- TGI (UACC-257 melanoma): 15.4 nM
- GI50 (A549 NSCLC): < 10 nM
- TGI (A549 NSCLC): 116 nM
- GI50 (NCI/ADR-RES ovarian): 202 nM
- TGI (NCI/ADR-RES ovarian): 1090 nM
- GI50 (SK-MEL-28 melanoma): < 10 nM
- TGI (SK-MEL-28 melanoma): < 10 nM
- GI50 (RPMI-8226 leukemia): < 10 nM
- TGI (RPMI-8226 leukemia): < 10 nM
- GI50 (IGROV1 ovarian): < 10 nM
- TGI (IGROV1 ovarian): 127 nM
- GI50 (K-562 leukemia): < 10 nM
- TGI (K-562 leukemia): 43.5 nM
- GI50 (HCT-15 colon): < 10 nM
- TGI (HCT-15 colon): 64.6 nM
- GI50 (LOX IMVI melanoma): < 10 nM
- TGI (LOX IMVI melanoma): < 10 nM
- GI50 (T-47D breast): 15.6 nM
- TGI (T-47D breast): 144 nM
- GI50 (HOP-62 NSCLC): < 10 nM
- TGI (HOP-62 NSCLC): < 10 nM
- GI50 (BT-549 breast): < 10 nM
- TGI (BT-549 breast): < 10 nM
- GI50 (HL-60(TB) leukemia): < 10 nM
- TGI (HL-60(TB) leukemia): < 10 nM
- GI50 (OVCAR-5 ovarian): < 10 nM
- TGI (OVCAR-5 ovarian): 1310 nM
- GI50 (HOP-92 NSCLC): < 10 nM
- TGI (HOP-92 NSCLC): 136 nM
- GI50 (NCI-H460 NSCLC): < 10 nM
- TGI (NCI-H460 NSCLC): < 10 nM
- GI50 (UO-31 renal): 14 nM
- TGI (UO-31 renal): 42 nM
- GI50 (OVCAR-3 ovarian): < 10 nM
- TGI (OVCAR-3 ovarian): 12.9 nM
- GI50 (SF-539 CNS): < 10 nM
- TGI (SF-539 CNS): 20.4 nM
- GI50 (NCI-H23 lung): < 10 nM
- TGI (NCI-H23 lung): 14.4 nM
- GI50 (A498 renal): < 10 nM
- TGI (A498 renal): 15.2 nM
- GI50 (MOLT-4 leukemia): < 10 nM
- TGI (MOLT-4 leukemia): < 10 nM
